The source of these data is patent US12172993B2 (priority 2018, dated 2024).

The target in data set [1] is SRC (GST-HIS-tag) (Homo sapiens (Human), UniProt P12931). It is filed as biochemical.
The nature of data set [2]: in vitro. The note with it: human, microsomes.
Data set [3] addresses SIK2 (Homo sapiens (Human), UniProt Q9H0K1). It is filed as biochemical.
In data set [4] the test system is human plasma-proteins.
A short description of data set [5]: physchem. It is filed as physicochemical.
Data set [6] is described as follows: in vitro. The note with it: mouse, microsomes.
For data set [7], the target named is ABL1 wt (Homo sapiens (Human), UniProt P00519). Type of data set: biochemical.
For data set [8] the following is noted: human, microsomes.
In data set [9] the target is SIK1 (Homo sapiens (Human), UniProt P57059). Type of data set: biochemical.
The subject of data set [10] is murine plasma-proteins.
The conditions of data set [11]: mouse, microsomes.
Data set [12] has as its target T1, SIK3 (Homo sapiens (Human), UniProt Q9Y2K2).
Data set [13] deals with MC38 cells. Nature of the data set: cells. As to conditions: Mus musculus, MC-38, 72 h, read-out: MC38 IC50 (nM at 100 ng/mL TNF).
Data set [14] deals with T1, SIK3. Description: biochemical.
The nature of data set [15]: in vivo. As to conditions: CD1, mouse, plasma, oral, 30 mg/kg; read-out: Free concentration (nM) at timepoint after 30 mg/kg po.
Data set [16] has as its system M579-A2-luc. Type of data set: cell-based.
Data set [17] deals with NFKB activity. As to conditions: PANC-1 reporter cells, 10 ng/ml rHuTNF.
Data set [18] deals with HDAC4 phosphorylation. As to conditions: PANC-1 cells, 10 ng/mL rHuTNF, 3 h.

In brackets after ≈: the same amount, converted by molar mass. Like-named read-outs stand apart in the source and are kept apart here. Some results are limits rather than exact numbers.

What is called half-life is the time needed for the level to fall by half in the phase considered. Low readings indicate fast loss, high ones slow loss. A word on the kinetic solubility: it is the concentration staying in solution when a stock, usually in DMSO, is diluted into the medium.

ABL1 wt, sequence (P00519 118-535 limits assumed): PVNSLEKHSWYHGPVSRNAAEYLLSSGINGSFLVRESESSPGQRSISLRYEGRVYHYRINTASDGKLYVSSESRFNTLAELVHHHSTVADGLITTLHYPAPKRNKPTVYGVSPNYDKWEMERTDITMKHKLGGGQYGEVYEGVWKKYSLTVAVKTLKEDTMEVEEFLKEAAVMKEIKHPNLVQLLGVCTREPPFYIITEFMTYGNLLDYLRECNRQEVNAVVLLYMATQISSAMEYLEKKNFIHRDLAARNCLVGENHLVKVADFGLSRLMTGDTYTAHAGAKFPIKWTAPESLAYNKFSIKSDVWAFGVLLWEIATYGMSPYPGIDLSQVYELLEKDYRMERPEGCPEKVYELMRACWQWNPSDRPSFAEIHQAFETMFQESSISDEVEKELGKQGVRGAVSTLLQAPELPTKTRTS

Regarding `Cc1nc(Nc2ncc(C(=O)Nc3c(C)ccnc3C)s2)cc(N2CCN(CCO)CC2)n1` [Compound C1, N-(2,4-dimethylpyridin-3-yl)-2-((6-(4-(2-hydroxyethyl)piperazin-1-yl)-2-methylpyrimidin-4-yl)amino)thiazole-5-carboxamide], in [1], the IC50 is less than 1.5 nM.

Consider `Cc1nc(Nc2ncc(C(=O)Nc3ncccc3C)s2)cc(N2CCN(CCO)CC2)n1` [Compound C2, 2-((6-(4-(2-hydroxyethyl)piperazin-1-yl)-2-methylpyrimidin-4-yl)amino)-N-(3-methylpyridin-2-yl)thiazole-5-carboxamide], for which the half-life in [2] is more than 1.43 h; in [6] it was 0.667 h. In addition, the IC50 in data set [3] was 427 nM; in [1] it was less than 1.5 nM; in data set [7], 14.4 nM; in data set [9], 177 nM. The figures for the “Percentage unbound (%)” value in data set [4] and in [10] were 9% and 30%, respectively. In addition, the kinetic solubility in data set [5] is 160 µM (≈ 72.7 µg/mL); in data set [5] (kinetic from dmso stock) it was 128 to 195 µM (≈ 58.2 to 88.6 µg/mL). Moreover, the results for the Intrinsic clearance (L/min/mg) in data set [8] and in data set [11] were less than 17 µL/min/mg and 35 µL/min/mg, respectively. Further, the “% Remaining at 40 min (%)” value is given as 69% in [8] and 48% in data set [11].

As for `Cc1nc(Nc2ncc(C(=O)Nc3c(C)nn(C)c3C)s2)cc(N2CCN(CCO)CC2)n1` [Compound C8, 2-((6-(4-(2-hydroxyethyl)piperazin-1-yl)-2-methylpyrimidin-4-yl)amino)-N-(1,3,5-trimethyl-1H-pyrazol-4-yl)thiazole-5-carboxamide], the “Percentage unbound (%)” value in [4] turned out to be 5%; in data set [10], 62%. Also, in [5] (kinetic from dmso stock), the kinetic solubility fell in the range of 128 to 195 µM (≈ 60.4 to 92 µg/mL). For the same compound, the Intrinsic clearance (L/min/mg) in data set [8] and in [11] was less than 14 µL/min/mg in each case. In addition, the “% Remaining at 40 min (%)” value in [8] came to 81%; in [11], 86%.

As for `CC(=O)N1CCN(c2cc(Nc3ncc(C(=O)Nc4c(C)csc4Cl)s3)nc(C)n2)CC1` [Compound D8, 2-((6-(4-acetylpiperazin-1-yl)-2-methylpyrimidin-4-yl)amino)-N-(2-chloro-4-methylthiophen-3-yl)thiazole-5-carboxamide], the values for the IC50 in data set [12] and in data set [13] were approximately 150 nM and more than 200 nM, respectively.

As to `Cc1nc(Nc2ncc(C(=O)Nc3c(Cl)csc3Cl)s2)cc(N2CCN(CCO)CC2)n1` [Compound D7, N-(2,4-dichlorothiophen-3-yl)-2-((6-(4-(2-hydroxyethyl)piperazin-1-yl)-2-methylpyrimidin-4-yl)amino)thiazole-5-carboxamide], the IC50 in data set [14] is 15 to 20 nM. Also, in [15], the concentration at 2 h turned out to be 43 nM, the concentration at 6 h turned out to be 5 nM and the concentration at 12 h came out at 1.1 nM. Further, the IC50 in [13] is less than 200 nM.

On to `CCOc1cccc(Cl)c1NC(=O)c1cnc(Nc2cc(N3CCN(CCO)CC3)nc(C)n2)s1` [Compound B8, N-(2-chloro-6-ethoxyphenyl)-2-((6-(4-(2-hydroxyethyl)piperazin-l-yl)-2-methylpyrimidin-4-yl)amino)thiazole-5-carboxamide], for which the “cytotoxicity in the presence of TNF (10 ng/mL) compared to inhibitor alone” value (“cytotoxicity … compared to inhibitor alone” for short) in [16] is “fails to exhibit cytotoxicity”.

Consider `Cc1nc(Nc2ncc(C(=O)Nc3c(C)csc3Cl)s2)cc(N2CCN(C)CC2)n1` [Compound D9, N-(2-chloro-4-methylthiophen-3-yl)-2-((2-methyl-6-(4-methylpiperazin-1-yl)pyrimidin-4-yl)amino)thiazole-5-carboxamide], for which the “Inhibition of NFKB activity” value in [17] is reported as “+”. For the same compound, in [18], the “Inhibition of HDAC4 phosphorylation” value is listed as “+”. The compound further displayed an IC50 in [12] of approximately 60 nM. In addition, in data set [15], the concentration at 2 h came out at 44 nM, the concentration at 6 h amounted to 8 nM and the concentration at 12 h came to 2.71 nM. Also, in data set [13], the IC50 is less than 100 nM.

With `Cc1nc(Nc2ncc(C(=O)Nc3c(C)cncc3Cl)s2)cc(N2CCN(CCO)CC2)n1` [Compound C4, N-(3-chloro-5-methylpyridin-4-yl)-2-((6-(4-(2-hydroxyethyl)piperazin-1-yl)-2-methylpyrimidin-4-yl)amino)thiazole-5-carboxamide], the results for the “Percentage unbound (%)” value in [4] and in data set [10] were 2% and 14%, respectively. Besides, the solubility (kinetic) in [5] (kinetic from dmso stock) is 128 µM (≈ 62.6 µg/mL). Also, the IC50 in data set [1] was less than 1.5 nM. In addition, the figures for the Intrinsic clearance (L/min/mg) in [8] and in data set [11] were 115 µL/min/mg and 38 µL/min/mg, respectively. For the same compound, the “% Remaining at 40 min (%)” value in data set [8] was determined as 10%; in data set [11], 45%.

As to `Cc1nc(Nc2ncc(C(=O)Nc3c(C)cncc3C)s2)cc(N2CCN(CCO)CC2)n1` [Compound C5, N-(3,5-dimethylpyridin-4-yl)-2-((6-(4-(2-hydroxyethyl)piperazin-1-yl)-2-methylpyrimidin-4-yl)amino)thiazole-5-carboxamide], the IC50 in data set [1] is less than 1.5 nM.

`Cc1nc(Nc2ncc(C(=O)Nc3c(C)noc3C)s2)cc(N2CCN(CCO)CC2)n1` [Compound C9]: the half-life in data set [2] and in data set [6] was more than 1.67 h each time. The IC50 in [3] is 232 nM; in data set [1], 6.44 nM; in data set [7], 27.4 nM; in data set [9], 169 nM; in data set [12], 800 nM. Besides, the entries for the “Percentage unbound (%)” value in data set [4] and in data set [10] were 6% and 44%, respectively. Moreover, the solubility (kinetic) was 174 µM (≈ 79.8 µg/mL) in [5] and 128 to 195 µM (≈ 58.7 to 89.4 µg/mL) in [5] (kinetic from dmso stock). Moreover, the Intrinsic clearance (L/min/mg) in data set [8] and in data set [11] was less than 14 µL/min/mg in each case. Also, the “% Remaining at 40 min (%)” value in [8] is 89%; in data set [11], 83%.

For `Cc1nc(Nc2ncc(C(=O)Nc3c(Cl)ccnc3C)s2)cc(N2CCN(C)CC2)n1` [Compound C10], the IC50 is 138 nM in data set [3], less than 1.5 nM in data set [1], 4.3 nM in data set [7] and 493 nM in data set [12].

For `COc1c(F)cccc1NC(=O)c1cnc(Nc2cc(N3CCN(CCO)CC3)nc(C)n2)s1` [Compound B4, N-(3-fluoro-2-methoxyphenyl)-2-((6-(4-(2-hydroxyethyl)piperazin-l-yl)-2-methylpyrimidin-4-yl)amino)thiazole-5-carboxamide], in [16], the “cytotoxicity … compared to inhibitor alone” value is listed as “fails to exhibit cytotoxicity”.

`Cc1nc(Nc2ncc(C(=O)Nc3cccnc3C)s2)cc(N2CCN(CCO)CC2)n1` [Compound C6, 2-((6-(4-(2-hydroxyethyl)piperazin-1-yl)-2-methylpyrimidin-4-yl)amino)-N-(2-methylpyridin-3-yl)thiazole-5-carboxamide] displayed an IC50 in data set [1] of less than 1.5 nM.

For `Cc1nc(NCCO)cc(Nc2ncc(C(=O)Nc3c(Cl)ccnc3C)s2)n1` [Compound C11, N-(4-chloro-2-methylpyridin-3-yl)-2-((6-((2-hydroxyethyl)amino)-2-methylpyrimidin-4-yl)amino)thiazole-5-carboxamide], the IC50 in data set [1] is less than 1.5 nM.

With `Cc1nc(Nc2ncc(C(=O)Nc3c(Cl)csc3C)s2)cc(N2CCN(CCO)CC2)n1` [Compound D1, N-(4-chloro-2-methylthiophen-3-yl)-2-((6-(4-(2-hydroxyethyl)piperazin-1-y1)-2-methylpyrimidin-4-yl)amino)thiazole-5-carboxamidexs], the IC50 in [14] was 40 to 45 nM. In addition, in data set [15], the concentration at 2 h came out at 80 nM, the concentration at 6 h was 4 nM and the concentration at 12 h came to 2.14 nM. For the same compound, the IC50 in data set [13] is less than 200 nM.

Consider `Cc1nc(Nc2ncc(C(=O)Nc3c(Cl)cccc3Br)s2)cc(N2CCN(CCO)CC2)n1` [Compound B1, N-(2-bromo-6-chlorophenyl)-2-((6-(4-(2-hydroxyethyl)piperazin-l-yl)-2-methylpyrimidin-4-yl)amino)thiazole-5-carboxamide], for which the “cytotoxicity … compared to inhibitor alone” value in data set [16] is on record as “increased cytotoxicity”.
